This test has as its target T1, Autotaxin enzyme (ATX) (Homo sapiens, UniProt Q13822).
T1 construct: purchased Echelon Biosciences, Inc. E-4000
The test can be described thus: In vitro ATX assay (enzymatic ATX inhibition, LPC 14:0 substrate, choline oxidase/HRP absorbance readout). Type of test: biochemical. To be noted: 0.3 mM LPC 14:0, 37° C., 4 hours, absorbance 555 nm. The method in brief: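 Human ATX (10 ng/mL as added) in pH 9.0 Tris buffer with NaCl, MgCl2, CoCl2 and Triton X-100 was preincubated with compound for 15 min at 37 °C. LPC 14:0 (0.3 mM final) was then hydrolysed for 4 h at 37 °C. Released choline was detected by choline oxidase/HRP with 4-AAP/TOOS, read after 15 min RT as absorbance at 555 nm, giving banded IC50 values.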

The source of these data is US20210363152A1, “AMINOAZINE AMIDES” (Hoffmann-La Roche Inc., priority 2018, published 2021).

As usually defined, the pIC50 is −log10 of the IC50, conventionally taken in molar units. A higher pIC50 goes with a small IC50.

Molecules are shown by their SMILES. pIC50: −log10 of the molar value.

For `COC[C@H]1CCN1C(=O)c1cnc(NCc2cc(OC(F)(F)F)cc(C3CC3)c2)nc1` [Example 103, (R)-(2-((3-cyclopropyl-5-(trifluoromethoxy)benzyl)ami-no)pyrimidin-5-yl)(2-(methoxymethyl)azetidin-1-yl)methanone], the negative logarithm of the IC50 (pIC50) is > 7.00.
Consider `CC1CC(C)N1C(=O)c1cnc(NCc2cc(OC(F)(F)F)cc(C3CC3)c2)nc1` (single isomer, unassigned) [Example 118, (2-((3-Cyclopropyl-5-(trifluoromethoxy)-benzyl)amino)pyrimidin-5-yl)(2,4-dimethylazetidin-1-yl)methanone], for which the negative-log IC50 (pIC50) is > 7.00.
In the case of `CC(C)(O)[C@H]1CCN1C(=O)c1cnc(N[C@@H]2Cc3ccc(Cl)cc3C2)nc1` [Example 136, (2-(((R)-5-Chloro-2,3-dihydro-1H-inden-2-yl)amino)pyrimidin-5-yl) ((R)-2-(2-hydroxypropan-2-yl)azetidin-1-yl)methanone] it was > 7.00; in that of `O=C(c1cnc(NCc2cccc(C(F)F)c2)nc1)N1CCC12COC2` [Example 18], ≤ 6.00; in that of `O=C(c1cnc(NCc2cc(OC(F)(F)F)cc(C3CC3)c2)nc1)N1CC(F)C1` [Example 85, (2-((3-cyclopropyl-5-(trifluoromethoxy)benzyl)ami-no)pyrimidin-5-yl)(3-fluoroazetidin-1-yl)-methanone], > 7.00.
In the case of `O=C(c1cnc(NCc2cc(OC(F)(F)F)cc(C3CC3)c2)nc1)N1CC2(COC2)C1` [Example 82, (2-((3-cyclopropyl-5-(trifluoromethoxy)benzyl)ami-no)pyrimidin-5-yl)(2-oxa-6-azaspiro[3.3]heptan-6-yl)methanone] it was 6.00 to 7.00; in that of `CC(C)c1cc(CNc2ncc(C(=O)N3CCC34CN(S(C)(=O)=O)C4)cn2)cc(OC(F)(F)F)c1` [Example 151, (2-((3-Isopropyl-5-(trifluoromethoxy)benzyl)amino)pyrimidin-5-yl) (6-(methylsulfonyl)-1,6-diazaspiro[3.3]heptan-1-yl)methanone], > 7.00; in that of `CCOc1cc(CNc2ncc(C(=O)N3CCC34COC4)cn2)cc(C2CC2)c1` [Example 67], > 7.00.
Consider `O=C(c1cnc(NCc2cccc(OC(F)(F)F)c2)cn1)N1CCC12COC2` [Example 71, 6-Oxa-1-azaspiro[3.3]heptan-1-yl(5-((3-(trifluoromethoxy)benzyl)|amino)pyrazin-2-yl)methanone], for which the negative-log IC50 (pIC50) is 6.00 to 7.00.
Turning to `CC(=O)N1CC2(CCN2C(=O)c2cnc(NCc3cc(OC(F)(F)F)cc(C4CC4)c3)nc2)C1` [Example 153, 1-(1-(2-((3-Cyclopropyl-5-(trifluoromethoxy)benzyl)amino)pyrimidine-5-carbonyl)-1,6-diazaspiro[3.3]heptan-6-yl)ethanone], the pIC50 was > 7.00.
In the case of `O=C(c1cnc(NC2Cc3ccc(Cl)cc3C2)nc1)N1CCCC12COC2` (stereo not drawn) [Example 46] it was > 7.00.
For the compound `CC(C)Oc1cc(CNc2ncc(C(=O)N3CCC34COC4)cn2)cc(OC(C)C)c1` [Example 52], the pIC50 was > 7.00.
Regarding `O=C(c1cnc(NCc2cc(OC(F)(F)F)cc(C3CC3)c2)nc1)N1CC2(CCO2)C1` [Example 105, (2-((3-cyclopropyl-5-(trifluoromethoxy)benzyl)ami-no)pyrimidin-5-yl)(1-oxa-6-azaspiro[3.3]heptan-6-yl)methanone], the negative-log IC50 (pIC50) was 6.00 to 7.00.
Turning to `CC(C)Oc1cc(CNc2ncc(C(=O)N3CCC3C(C)(C)O)cn2)cc(OC(C)C)c1` (stereo not drawn) [Example 58], the pIC50 is > 7.00.
Turning to `CC1(C)CCN1C(=O)c1cnc(NCc2cc(OC(F)(F)F)cc(C3CC3)c2)nc1` [Example 89, (2-((3-cyclopropyl-5-(trifluoromethoxy)benzyl)ami-no)pyrimidin-5-yl)(2,2-dimethylazetidin-1-yl)methanone], the pIC50 was > 7.00.
Under `CC(C)(C)OC(=O)N1CC2(CCN2C(=O)c2cnc(NCc3cc(OC(F)(F)F)cc(C4CC4)c3)nc2)C1` [Example 92, tert-butyl 1-(2-((3-cyclopropyl-5-(trifluoro-methoxy)benzyl)amino)py-rimidine-5-carbonyl)-1,6-diazaspiro[3.3]heptane-6-carboxylate] stands > 7.00; under `O=C(c1cnc(NCc2cc(OC(F)(F)F)cc(C3CC3)c2)nc1)N1CC2(CCS2(=O)=O)C1` [Example 102, (2-((3-cyclopropyl-5-(trifluoromethoxy)benzyl)ami-no)pyrimidin-5-yl)(1,1-dioxido-1-thia-6-azaspiro[3.3]heptan-6-y)methanone], 6.00 to 7.00.
Under `CC(C)Oc1ccc2c(c1)CC(Nc1ncc(C(=O)N3CCC34COC4)cn1)C2` (stereo not drawn) [Example 161, (2-((5-Isopropoxy-2,3-dihydro-1H-inden-2-yl)amino)pyrimidin-5-yl)(6-oxa-1-azaspiro[3.3]heptan-1-yl)methanone] stands 6.00 to 7.00.
On to `O=C(c1ccc(NCc2cccc(OC(F)(F)F)c2)nn1)N1CCC12COC2` [Example 72, 6-Oxa-1-azaspiro[3.3]heptan-1-yl(6-((3-(trifluoromethoxy)benzyl)amino)pyridazin-3-yl)methanone], for which the pIC50 was ≤ 6.00.
Under `O=C(c1cnc(NCc2cccc(S(F)(F)(F)(F)F)c2)nc1)N1CCC12COC2` [Example 24] stands 6.00 to 7.00.
Turning to `CC(C)c1cc(CNc2ncc(C(=O)N3CCCCC3)cn2)cc(OC(F)(F)F)c1` [Example 22], the pIC50 is 6.00 to 7.00.
In the case of `CC1CCN1C(=O)c1cnc(NCc2cc(OC(F)(F)F)cc(C(C)(C)C)c2)nc1` (stereo not drawn) [Example 5] it was 6.00 to 7.00; in that of `O=C(c1cnc(NCc2cccc(OC(F)F)c2)nc1)N1CCC12COC2` [Example 17], ≤ 6.00; in that of `O=C(c1cnc(NCc2cc(OC(F)(F)F)cc(C3CC3)c2)nc1)N1CCC12CCOC2` (stereo not drawn) [Example 97, (2-((3-cyclopropyl-5-(trifluoromethoxy)benzyl)ami-no)pyrimidin-5-yl)(6-oxa-1-azaspiro[3.4]octan-1-yl)methanone], > 7.00.
In the case of `CCCc1cc(CNc2ncc(C(=O)N3CCC34COC4)cn2)cc(OC(C)C)c1` [Example 39] it was > 7.00; in that of `Cc1cc2c(cc1C)CC(Nc1ncc(C(=O)N3CCC34COC4)cn1)C2` [Example 128, (2-((5,6-Dimethyl-2,3-dihydro-1H-inden-2-yl)amino)pyrimidin-5-yl)(6-oxa-1-azaspiro[3.3]heptan-1-yl)methanone], ≤ 6.00; in that of `O=C(c1cnc(NCc2cc(OC(F)(F)F)cc(C3CC3)c2)nc1)N1CCC12CCCOC2` (single isomer, unassigned) [Example 122, (2-((3-Cyclopropyl-5-(trifluoromethoxy)benzyl)amino)-pyrimidin-5-yl)(6-oxa-1-azaspiro[3.5]nonan-1-yl)methanone], > 7.00.
Under `O=C(c1cnc(NC2Cc3ccc(C4CC4)cc3C2)nc1)N1CCC12COC2` (stereo not drawn) [Example 125, (2-((5-Cyclopropyl-2,3-dihydro-1H-inden-2-yl)amino)pyrimidin-5-yl)(6-oxa-1-azaspiro[3.3]heptan-1-yl)methanone] stands > 7.00.
Take `CCOc1cc(CNc2ncc(C(=O)N3CCC34COC4)cn2)cc(OC(F)(F)F)c1` [Example 31]: the pIC50 was > 7.00.
In the case of `O=C(c1cnc(NCc2cc(OC(F)(F)F)cc(C3CC3)c2)nc1)N1CCc2cccnc21` [Example 90, (2-((3-cyclopropyl-5-(trifluoromethoxy)benzyl)ami-no)pyrimidin-5-yl)(2,3-dihydro-1H-pyrrolo[2,3-b]pyridin-1-yl)methanone] it was 6.00 to 7.00; in that of `O=C(c1cnc(NC2Cc3ccc(F)cc3C2)nc1)N1CCC12COC2` (stereo not drawn) [Example 42], > 7.00; in that of `O=C(c1cnc(NCc2cc(OC(F)(F)F)cc(C3CC3)c2)nc1)N1CCC12CN(C1COC1)C2` [Example 145, (2-((3-Cyclopropyl-5-(trifluoromethoxy)benzyl)amino)pyrimidin-5-yl) (6-(oxetan-3-yl)-1,6-diazaspiro[3.3]heptan-1-yl)methanone], > 7.00.
In the case of `COC[C@@H]1CCN1C(=O)c1cnc(NC2Cc3ccc(Cl)cc3C2)nc1` (stereo partly drawn) [Example 57] it was > 7.00.
For `O=C(c1cnc(NCc2cc(OCC(F)(F)F)cc(OC(F)(F)F)c2)nc1)N1CCC12COC2` [Example 35], the pIC50 is > 7.00.
`O=C(c1cnc(NCc2cc(OC(F)(F)F)cc(C3CC3)c2)nc1)N1CCC12CN(CC(F)(F)F)C2` [Example 148, (2-((3-Cyclopropyl-5-(trifluoromethoxy)benzyl)amino)pyrimidin-5-yl) (6-(2,2,2-trifluoroethyl)-1,6-diazaspiro[3.3]heptan-1-yl)methanone]: the pIC50 was > 7.00.
In the case of `CCN1CC2(CCN2C(=O)c2cnc(NCc3cc(OC(F)(F)F)cc(C4CC4)c3)nc2)C1` [Example 143, (2-((3-Cyclopropyl-5-(trifluoromethoxy)benzyl)amino)pyrimidin-5-yl)(6-ethyl-1,6-diazaspiro[3.3]heptan-1-yl)methanone] it was > 7.00; in that of `O=C(c1cnc(NC2Cc3ccc(Cl)cc3C2)nc1)N1CCC12CCCOC2` (stereo not drawn) [Example 48], > 7.00.
Regarding `O=C(c1cnc(N[C@H]2Cc3ccc(Cl)cc3C2)nc1)N1CCC12COC2` [Example 130, (S)-(2-((5-Chloro-2,3-dihydro-1H-inden-2-yl)amino)pyrimidin-5-yl)(6-oxa-1-azaspiro[3.3]heptan-1-yl)methanone], the pIC50 is 6.00 to 7.00.
Compound `O=C(c1cnc(NCc2cc(OC(F)(F)F)cc(C3CC3)c2)nc1)N1CCC1C(F)(F)F` (stereo not drawn) [Example 114, (2-((3-cyclopropyl-5-(trifluoromethoxy)benzyl)ami-no)pyrimidin-5-yl)(2-(trifluoromethyl)azetidin-1-yl)methanone] gave a negative logarithm of the IC50 (pIC50) of 6.00 to 7.00.
